Test results published in ChEMBL document CHEMBL1201862, “PubChem BioAssay data set” (2004).
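Step 1: Grow cells in 96-well plates. Step 2: Expose to compound for 48 hours at 5 concentrations. Step 3: Interpolate endpoints linearly; if unreached, use highest concentration. GI50 = concentration required for 50% inhibition of growth.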 Calls of active or inactive are those of the source. Cut-off read from the data, not from the text of the source: active = GI50 up to about 1.1 µM and inactive = higher.

Experiments:
Assay in all cases: inhibition of tumour cell growth, NCI panel, 48 h
COLO 205 = test system: COLO 205
HL-60 = test system: HL-60
CCRF-CEM = test system: CCRF-CEM
SK-OV-3 = test system: SK-OV-3
SNB-75 = test system: SNB-75
UACC-257 = test system: UACC-257
ACHN = test system: ACHN
TK-10 = test system: TK-10
IGROV-1 = test system: IGROV-1
SK-MEL-28 = test system: SK-MEL-28
LOX IMVI = test system: LOX IMVI
NCI-H23 = test system: NCI-H23
SK-MEL-5 = test system: SK-MEL-5
OVCAR-5 = test system: OVCAR-5
OVCAR-3 = test system: OVCAR-3
OVCAR-4 = test system: OVCAR-4
NCI-H226 = test system: NCI-H226

Measured: GI50

COc1cccc(-c2cc(O)c3cc(OC)c(OC)cc3n2)c1
inactive: COLO 205 39.3 µM | HL-60 33.1 µM | CCRF-CEM 31.8 µM | SK-OV-3 87.3 µM | SNB-75 34.8 µM | UACC-257 28.9 µM | ACHN > 100 µM | TK-10 51.6 µM | IGROV-1 89.3 µM | SK-MEL-28 > 100 µM | LOX IMVI 64.7 µM | NCI-H23 41.1 µM

NC(=O)NC1C(C(N)=O)N(Cc2ccccc2)C(=O)N1Cc1ccccc1 (stereo not drawn)
inactive: COLO 205 > 100 µM | HL-60 > 100 µM | CCRF-CEM > 100 µM | SK-OV-3 > 100 µM | SNB-75 > 100 µM | SK-MEL-5 > 100 µM | UACC-257 > 100 µM | OVCAR-5 40.7 µM | ACHN > 100 µM | OVCAR-3 > 100 µM | TK-10 > 100 µM | IGROV-1 > 100 µM | SK-MEL-28 > 100 µM | OVCAR-4 > 100 µM | LOX IMVI > 100 µM | NCI-H23 > 100 µM

O=[N+]([O-])c1cccc(C2SCc3nc4ccccc4n32)c1 (stereo not drawn)
inactive: COLO 205 > 100 µM | NCI-H226 39.6 µM | HL-60 54.3 µM | CCRF-CEM > 100 µM | SK-OV-3 > 100 µM | SK-MEL-5 19.6 µM | UACC-257 39.3 µM | OVCAR-5 39.3 µM | ACHN 62.7 µM | TK-10 > 100 µM | IGROV-1 33 µM | SK-MEL-28 > 100 µM | OVCAR-4 63.8 µM | LOX IMVI 88.3 µM | NCI-H23 64.4 µM

CC1=C(C(=O)NCc2ccccc2)C(c2ccc([N+](=O)[O-])cc2)C(C(=O)NCc2ccccc2)=C(C)N1
inactive: COLO 205 29.2 µM | NCI-H226 31.8 µM | HL-60 21.2 µM | SNB-75 40.4 µM | SK-MEL-5 38.5 µM | UACC-257 38.6 µM | OVCAR-5 25.4 µM | ACHN 27.4 µM | OVCAR-3 46.5 µM | TK-10 42.8 µM | IGROV-1 56.5 µM | SK-MEL-28 37.7 µM | OVCAR-4 17.4 µM | LOX IMVI 18.2 µM | NCI-H23 39.7 µM

O=C1C(c2ccccc2)=C(c2ccccc2)[C@H](c2ccccc2)[C@]1(Cc1nnn(-c2ccc([N+](=O)[O-])cc2)c1N1CCOCC1)c1ccccc1
inactive: COLO 205 > 37.5 µM | HL-60 > 37.5 µM | CCRF-CEM > 37.5 µM | SK-OV-3 > 37.5 µM | SNB-75 > 37.5 µM | SK-MEL-5 19.1 µM | UACC-257 > 37.5 µM | ACHN 14.5 µM | OVCAR-3 9.93 µM | TK-10 > 37.5 µM | IGROV-1 > 37.5 µM | SK-MEL-28 > 37.5 µM | OVCAR-4 13.7 µM | LOX IMVI 24.5 µM | NCI-H23 > 37.5 µM

N#CC1C2CCC3(CC2CCN1C(=O)c1ccccc1)OCCO3 (stereo not drawn)
inactive: COLO 205 > 100 µM | HL-60 > 100 µM | CCRF-CEM > 100 µM | SK-OV-3 > 100 µM | SNB-75 > 100 µM | SK-MEL-5 > 100 µM | UACC-257 > 100 µM | OVCAR-5 > 100 µM | ACHN > 100 µM | OVCAR-3 > 100 µM | TK-10 > 100 µM | IGROV-1 > 100 µM | SK-MEL-28 > 100 µM | OVCAR-4 > 100 µM | LOX IMVI > 100 µM | NCI-H23 > 100 µM

COCC(=O)CP(=O)(OC)OC
inactive: COLO 205 > 100 µM | HL-60 > 100 µM | CCRF-CEM > 100 µM | SK-OV-3 > 100 µM | SNB-75 > 100 µM | SK-MEL-5 > 100 µM | UACC-257 > 100 µM | OVCAR-5 > 100 µM | ACHN > 100 µM | OVCAR-3 > 100 µM | TK-10 > 100 µM | IGROV-1 > 100 µM | SK-MEL-28 > 100 µM | OVCAR-4 > 100 µM | LOX IMVI > 100 µM | NCI-H23 > 100 µM

CCCCCCCCCCCC(=O)OCC1OC(n2cc(F)c(=O)[nH]c2=O)C(NC(=O)OCc2ccccc2)C(O)C1O (stereo not drawn)
inactive: COLO 205 21.2 µM | HL-60 20.6 µM | CCRF-CEM 17.6 µM | SK-OV-3 63.7 µM | SNB-75 11.1 µM | SK-MEL-5 20.3 µM | UACC-257 23.4 µM | ACHN 57.4 µM | OVCAR-3 25 µM | TK-10 38.8 µM | IGROV-1 > 100 µM | SK-MEL-28 19.1 µM | OVCAR-4 23.8 µM | LOX IMVI 18.4 µM | NCI-H23 35.3 µM

Cc1cccc(C(=O)O)c1C(=O)c1cccc2ccccc12
inactive: COLO 205 > 100 µM | NCI-H226 > 100 µM | CCRF-CEM > 100 µM | SK-OV-3 > 100 µM | SNB-75 > 100 µM | SK-MEL-5 > 100 µM | UACC-257 > 100 µM | OVCAR-5 > 100 µM | ACHN > 100 µM | OVCAR-3 > 100 µM | TK-10 > 100 µM | IGROV-1 > 100 µM | SK-MEL-28 > 100 µM | OVCAR-4 > 100 µM | LOX IMVI > 100 µM | NCI-H23 > 100 µM

O=C(CN(Cc1ccccc1)Cc1ccccc1)N1CCc2c([nH]c3ccccc23)C1c1cccnc1 (stereo not drawn)
inactive: HL-60 1.71 µM | CCRF-CEM 4.11 µM | SK-OV-3 80.9 µM | SNB-75 7.36 µM | SK-MEL-5 7.23 µM | UACC-257 13.2 µM | OVCAR-5 7.38 µM | ACHN 7.64 µM | OVCAR-3 5.82 µM | TK-10 27.5 µM | IGROV-1 29.7 µM | SK-MEL-28 21.2 µM | OVCAR-4 3.99 µM | LOX IMVI 7.73 µM | NCI-H23 5.41 µM

Cc1cccc(CC(C)(C)C)c1NC(=O)C(=O)C(C(=O)c1ccc2ccccc2c1)C1OC(=O)c2ccccc21 (stereo not drawn)
inactive: COLO 205 15.4 µM | NCI-H226 2.4 µM | SK-OV-3 26.5 µM | SK-MEL-5 13.1 µM | UACC-257 12 µM | OVCAR-5 15.2 µM | ACHN 18 µM | OVCAR-3 58.5 µM | IGROV-1 16.7 µM | SK-MEL-28 5.58 µM | OVCAR-4 41.5 µM | LOX IMVI 11.5 µM | NCI-H23 6.35 µM

CC(C)(C)C(=O)O[C@@H]1COC2C(O)COC21 (stereo partly drawn)
inactive: COLO 205 > 100 µM | HL-60 > 100 µM | CCRF-CEM > 100 µM | SNB-75 > 100 µM | SK-MEL-5 > 100 µM | UACC-257 > 100 µM | OVCAR-5 > 100 µM | ACHN > 100 µM | OVCAR-3 > 100 µM | TK-10 > 100 µM | IGROV-1 > 100 µM | SK-MEL-28 > 100 µM | OVCAR-4 > 100 µM | LOX IMVI > 100 µM | NCI-H23 > 100 µM

COc1cc2c(cc1OC)[C@]1(O)C(=O)c3ccc4c(c3O[C@@H]1CO2)C[C@H](C(C)(C)O)O4
inactive: COLO 205 > 100 µM | HL-60 24.9 µM | CCRF-CEM 68.1 µM | SK-OV-3 > 100 µM | SNB-75 22 µM | UACC-257 6.95 µM | OVCAR-5 > 100 µM | ACHN 15.1 µM | OVCAR-3 74.3 µM | TK-10 > 100 µM | IGROV-1 > 100 µM | SK-MEL-28 > 100 µM | LOX IMVI 11.1 µM | NCI-H23 2.65 µM
